# T1: SpeG (Escherichia coli, UniProt P0A951)
# T1 sequence (P0A951 1-186): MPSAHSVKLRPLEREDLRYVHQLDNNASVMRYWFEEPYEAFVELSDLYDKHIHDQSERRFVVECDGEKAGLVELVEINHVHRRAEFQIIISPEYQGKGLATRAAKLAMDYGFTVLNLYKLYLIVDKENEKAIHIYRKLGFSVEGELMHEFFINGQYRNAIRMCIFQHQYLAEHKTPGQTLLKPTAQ
# B1: SpeG (Escherichia coli K-12) (protein)
# chain: T1 sequence (P0A951 1-186)
# Legend:
# [1] = biological target: T1, SpeG; test: continuous spectrophotometric acetyltransferase assay; format: biochemical
# [2] = biological target: T2, spermidine/spermine acetyltransferase 1 (SAT1) (Homo sapiens, UniProt P21673); test: continuous spectrophotometric acetyltransferase assay, […] spermidine as substrate; format: biochemical
# [3] = biological target: PA1472 (Pseudomonas aeruginosa, UniProt Q9I3P0)
# [4] = biological target: T2, spermidine/spermine acetyltransferase 1 (SAT1)
# [5] = substrate: NCCCCNCCCN; test: continuous spectrophotometric enzyme kinetics; format: biochemical, Escherichia coli; conditions: acetyl-CoA
# T2 sequence (P21673 whole entry): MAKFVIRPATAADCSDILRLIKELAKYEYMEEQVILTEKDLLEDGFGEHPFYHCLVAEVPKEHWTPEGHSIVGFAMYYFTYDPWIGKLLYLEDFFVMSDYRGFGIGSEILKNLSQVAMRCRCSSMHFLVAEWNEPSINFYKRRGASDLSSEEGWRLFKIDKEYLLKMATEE
# Chain of PA1472 (Q9I3P0 1-184): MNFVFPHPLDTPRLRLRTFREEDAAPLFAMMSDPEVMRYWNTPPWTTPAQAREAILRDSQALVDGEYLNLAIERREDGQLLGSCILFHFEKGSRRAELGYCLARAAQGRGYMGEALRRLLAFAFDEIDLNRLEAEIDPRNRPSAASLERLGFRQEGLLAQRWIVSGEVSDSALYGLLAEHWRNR
molecule,measurement,setting,value
N=C(N)c1ccc(/N=N/Nc2ccc(C(=N)N)cc2)cc1 [diminazene],IC50,[1],26.2 ± 3.7 µM
same,IC50,[2],21 ± 0.6 µM
NCCCCN [putrescine],Km,[3],30.7 ± 9.9 mM
same,Km,[4],8.7 ± 2.43 mM
B1,K0.5,[5],590.1 ± 30.8 µM

# Source: PMC10542159 (bioRxiv, 2023)
